Results published in PubChem BioAssay AID2432 (Johns Hopkins Ion Channel Center, 2010).

Target: Potassium voltage-gated channel subfamily KQT member 2 (Rattus norvegicus) (UniProt O88943)
Test: KCNQ2 point mutants response to potentiator, late-stage follow-up, mechanism study for KCNQ2 potentiator project, cell-based, rat KCNQ2, manual patch clamp, mode of action (AID 2432)
Conditions: HEK293-KCNQ2 manual patch clamp, peak current ratio, at 10 µM; for V1/2: stronger effect = lower value

Sequence of Potassium voltage-gated channel subfamily KQT member 2 (Rattus norvegicus) (O88943 whole entry, looked up): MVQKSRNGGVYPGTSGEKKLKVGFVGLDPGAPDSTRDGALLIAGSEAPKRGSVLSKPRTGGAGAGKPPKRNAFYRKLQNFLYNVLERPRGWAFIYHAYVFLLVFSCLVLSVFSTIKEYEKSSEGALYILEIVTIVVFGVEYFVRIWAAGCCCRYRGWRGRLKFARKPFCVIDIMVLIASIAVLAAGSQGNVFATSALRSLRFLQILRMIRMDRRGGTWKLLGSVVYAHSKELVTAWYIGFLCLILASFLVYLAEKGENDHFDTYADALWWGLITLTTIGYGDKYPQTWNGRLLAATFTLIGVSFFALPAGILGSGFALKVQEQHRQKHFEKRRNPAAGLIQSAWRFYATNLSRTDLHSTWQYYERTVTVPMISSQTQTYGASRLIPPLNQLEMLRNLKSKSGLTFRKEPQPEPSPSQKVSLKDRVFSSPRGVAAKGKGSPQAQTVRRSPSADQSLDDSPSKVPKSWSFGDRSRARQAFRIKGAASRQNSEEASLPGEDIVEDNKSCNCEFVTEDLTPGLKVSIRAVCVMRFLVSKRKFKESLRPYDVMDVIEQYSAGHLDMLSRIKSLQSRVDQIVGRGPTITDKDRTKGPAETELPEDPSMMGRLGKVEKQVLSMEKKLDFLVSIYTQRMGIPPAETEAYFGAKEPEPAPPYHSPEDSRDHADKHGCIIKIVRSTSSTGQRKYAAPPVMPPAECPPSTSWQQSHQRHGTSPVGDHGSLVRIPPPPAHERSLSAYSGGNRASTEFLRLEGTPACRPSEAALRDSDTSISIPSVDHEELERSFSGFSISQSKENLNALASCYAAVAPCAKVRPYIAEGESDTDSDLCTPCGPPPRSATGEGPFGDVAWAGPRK

O=C(Nc1ccc(Cl)nc1)c1ccc(F)cc1
current ratio I/I0 (stronger effect = higher value): 1.9
V1/2 (measured here: L249A mutant V1/2): -41.8 mV
current ratio I/I0 (measured here: L249A mutant current ratio, stronger effect = higher value): 1.8
V1/2 (measured here: L249A/L275A double mutant V1/2): -9.1 mV
current ratio I/I0 (measured here: L249A/L275A double mutant current ratio, stronger effect = higher value): 2.3
V1/2 (measured here: L275A mutant V1/2): -28.3 mV
current ratio I/I0 (measured here: L275A mutant current ratio, stronger effect = higher value): 1.8
V1/2 (measured here: W236L mutant V1/2): -38.6 mV
current ratio I/I0 (measured here: W236L mutant current ratio, stronger effect = higher value): 1.7
deactivation tau (measured here: WT deactivation time constant, stronger effect = higher value): 172 ms
V1/2 (measured here: WT half-activation voltage with compound): -55.3 mV
